Assay results reported in US10071133B2, “Method for destroying exosomes, kit for destroying exosomes, and method for isolating exosomes derived from normal cells” (priority 2015, dated 2018).

Experiments:
Format in all cases: biochemical
[1] = tested on: exosome fraction A prepared from the cell line MM231-luc-D3H2LN derived from human breast cancer cells; assay: Destruction of exosomes in PBS, number of exosomes by nanoparticle analyzer (NanoSight LM10); details: 100 μM peptide, 1.36×10^10 particles/mL exosomes in PBS, 25° C., 24 hours; without peptide 1.36×10^10
From the text: Storage samples were lightly suspended with a vortex mixer (vibration mixer) before use.

[2] = tested on: exosome fraction B derived from human breast cancer cells (MDA-MB-231-luc-D3H2LN); assay: Extraction of microRNA (miR-21) from exosomes derived from human breast cancer cells, real-time PCR; details: 100 μM peptide, 1×10^11 particles/mL exosomes, 0.4 U/μL RNase inhibitor, 37° C., 24 hours; without peptide 8×10^−14M
Method: (§1) A cell suspension of cell line MDA-MB-231-luc-D3H2LN derived from human breast cancer (=MM231-luc-D3H2LN, provided by the National Cancer Center Research Institute) was seeded in a dish containing RPMI 1640 medium (manufactured by Thermo Fisher Scientific Inc.) containing 10% fetal bovine serum. Subsequently, the cell line was grown at 37° C. under the condition that CO2 concentration was set to 5 volume % using a CO2 incubator, and then the medium was replaced with Advanced RPMI 1640 medium (manufactured by Thermo Fisher Scientific Inc.), followed by culturing for 48 hours, and therefore the culture solution containing exosomes was obtained. This culture solution was centrifuged at 2,000 G for 10 minutes to remove the precipitate, followed by centrifugation at 110,000 G for 70 minutes to precipitate the exosomes, and therefore an exosome fraction B was recovered. The recovered exosome fraction B was suspended in a phosphate buffered saline (PBS) and then stored at 4° C. Storage samples were lightly suspended with a vortex mixer (vibration mixer) before use.
(§2) MicroRNA (miR-21 or miR-16) in the reaction solution was subjected to reverse transcription PCR using reverse transcription primers (manufactured by Thermo Fisher Scientific Inc., Taqman microRNA Assays, RT primers, and hsa-mir-21 or hsa-mir-16) and a reverse transcriptase (manufactured by Thermo Fisher Scientific Inc., Taqman microRNA RT kit).
(§3) The reverse transcription PCR solution obtained by the above described method was processed and by comparing the number of cycles on a calibration curve of microRNA using Taqman Assay primer (manufactured by Thermo Fisher Scientific Inc., Taqman microRNA Assays, Taqman Assay primer, and hsa-mir-21 or hsa-mir-16) and Real-Time PCR Master Mixes (manufactured by Thermo Fisher Scientific Inc., TaqMan Universal PCR Master Mix II, w/UNG) with StepOnePlus Real-Time PCR System, MiR-21 or miR-16 was quantified. The calibration curve of microRNA was created using synthetic miR-21 (manufactured by Sigma-Aldrich Co. LLC.) or synthetic miR-16 (manufactured by Sigma-Aldrich Co. LLC.).
(§4) 10 μL of the exosome fraction was prepared such that PBS contains 1×10^11 particles/mL of the exosome fraction B derived from human breast cancer cells, various antimicrobial peptides shown in the following Table 2 adjusted to 100 μM, and 0.4 U/μL of RNase inhibitor (manufactured by Toyobo Co., Ltd.), followed by incubation by being left to stand at 37° C. for 24 hours.
MicroRNA eluted into the solution was purified and recovered from the incubated solution of Example 10 above and Comparative Example 6 above by the following method.
First, 160 μL of PBS was added to the reaction solution, and then the solution was added to a centrifugal filter (manufactured by Millipore Corporation, Amicon Ultra 0.5 mL, 100K filter) and centrifuged at 14,000 G for 2 minutes. Subsequently, 100 μL of the centrifuged filtrate was recovered and introduced into a 1.5 mL tube. Next, 350 μL of RLT buffer (manufactured by QIAGEN, attached with RNeasy mini kit) and 675 μL of ethanol were added and mixed in the 1.5 mL tube. The obtained mixture was separated into two parts, and each of the separates was added onto a spin column (manufactured by QIAGEN, attached with RNeasy mini kit) followed by centrifugation at 8,000 G for 15 seconds, and the entire amount of the mixture was passed through the spin column. Thereafter, 500 μL of RPE buffer (manufactured by QIAGEN, attached with RNeasy mini kit) was added thereto and centrifuged at 8,000 G for 15 seconds. Furthermore, 500 μL of the RPE buffer was added to the spin column once more and centrifuged at 8,000 G for 15 seconds. Thereafter, the spin column was centrifuged at 14,000 G for 1 minute to remove the residual RPE buffer. Next, 30 μL of RNase free water (manufactured by QIAGEN, attached with RNeasy mini kit) was added to the spin column, left for 1 minute, and then centrifuged at 14,000 G for 1 minute, and the eluate obtained thereby was recovered. […]

[3] = tested on: exosome fraction B derived from human breast cancer cells versus exosome fraction derived from human mammary gland cells (MCF-10A, normal cells); assay: Selectivity: miR-16 ratio, breast cancer exosomes versus mammary gland normal cell exosomes (Formula 1)
Method: as §1
A cell suspension of cell line MCF 10A derived from human mammary epithelial cells (provided by the National Cancer Center Research Institute) was seeded in a dish containing Mammary Epithelium Cell Basal Medium (manufactured by Lonza). Subsequently, the cell line was grown at 37° C. under the condition that CO2 concentration was set to 5 volume % using a CO2 incubator, and then the medium was replaced with a fresh medium, followed by culturing for 48 hours, and the culture solution containing exosomes was obtained. This culture solution was centrifuged at 2,000 G for 10 minutes to remove the precipitate, followed by centrifugation at 110,000 G for 70 minutes to precipitate the exosomes, and an exosome fraction was recovered. The recovered exosome fraction was suspended in a phosphate buffered saline (PBS) and then stored at 4° C. Storage samples were lightly suspended with a vortex mixer (vibration mixer) before use.
as §2, §3
as §4, with “Table 4” for “Table 2”
Thereafter, the eluted MicroRNA (miR-16) was purified and recovered from the incubated solution by the same method as the above described method for extraction from the incubated solution of Examples 10 and 11 above and Comparative Examples 6 and 7 above. […]

[4] = tested on: exosome fraction B derived from human breast cancer cells versus exosome fraction derived from normal human serum; assay: Selectivity: miR-16 ratio, breast cancer exosomes versus normal human serum exosomes (Formula 2); details: Formula 2, cancer/normal human serum exosomes; magainin 2 100 μM, 37° C., 24 hours
Method: as §1
Storage samples were lightly suspended with a vortex mixer (vibration mixer) before use. […]

With Magainin 2 the “number of exosomes in the solution” value [1] was 1.89×10^9 particles/mL, the “Destructive activity (concentration of microRNA miR-21 in eluate)” value [2] was “A (the concentration of microRNA is 50×10^−14M or more)” and the mir-16 ratio ([3]; Formula 1, cancer/normal (MCF-10A), 100 μM peptide, 37° C., 24 hours) was 26. For the same substance, the Selectivity ([3]; from miR-16 ratio versus Comparative Example 8, breast cancer vs MCF-10A exosomes) was “B (evaluated as “B” in a case where the calculated miR-16 value was higher than the miR-16 ratio of Comparative Example 8)” and the mir-16 ratio [4] was 56.6.
